Experimental data: patent publication US11485733B2, “Azaquinoline derivatives” (BAYER ANIMAL HEALTH GMBH, priority 2017, dated 2022)

Assays:
[1] = tested on: Nippostrongylus brasiliensis; test: Nippostrongylus brasiliensis (NIPOBR) adult worms, acetylcholine esterase readout; details: read-out: activity (reduction of AChE compared to negative control); for inhibition at 1 µg/mL: at 1 μg/ml (1 ppm); for inhibition at 10 µg/mL: at 10 μg/ml (10 ppm)
Method: In Vitro Assay 3: Nippostrongylus brasiliensis (NIPOBR)
Adult Nippostrongylus brasiliensis were washed with saline buffer containing 100 U/ml penicillin, 0.1 mg/ml streptomycin and 2.5 μg/ml amphotericin B. Test compounds were dissolved in DMSO and worms were incubated in medium in a final concentration of 10 μg/ml (10 ppm) respectively 1 μg/ml (1 ppm). An aliquot of the medium was used to determine the acetylcholine esterase activity in comparison to a negative control. The principle of measuring acetylcholine esterase as readout for anthelmintic activity was described in Rapson et al (1986) and Rapson et al (1987).

D. immitis Slo-1 = D. immitis Slo-1 (Dirofilaria immitis, UniProt I0DFK5); test: D. immitis Slo-1, action at a recombinant CHO cell line (membrane potential, FLIPR); format: cell-based
Cooperia curticei = Cooperia curticei larval mortality; details: 120 h, read-out: activity (percentage of larval mortality)
Method: In Vitro Assay 6: Cooperia curticei
Solvent: Dimethyl Sulfoxide
Approximately 40 nematode larvae (Cooperia curticei) are transferred into a test tube containing the compound solution.
After 5 days percentage of larval mortality is recorded. 100% efficacy means all larvae are killed; 0% efficacy means no larvae are killed.

C. elegans Slo-1a = C. elegans Slo-1a (Caenorhabditis elegans, UniProt Q95V25); details: pE50 (negative decadic logarithm of EC50), CHO cells expressing C. elegans Slo-1a; voltage sensitive dye, 70 mM KCl
Dirofilaria immitis = Dirofilaria immitis (DIROIM L4) larval motility; details: 72 h, read-out: EC50 (reduction of motility)
Haemonchus contortus = Haemonchus contortus larval mortality; details: 120 h, read-out: activity (percentage of larval mortality)
Method: In Vitro Assay 7: Haemonchus contortus
Solvent: Dimethyl Sulfoxide
Approximately 40 larvae of the red stomach worm (Haemonchus contortus) are transferred into a test tube containing compound solution.
After 5 days the percentage of larval mortality is recorded. 100% efficacy means all larvae are killed, 0% efficacy means no larvae are killed.

[2] = tested on: Dirofilaria immitis microfilariae; test: Dirofilaria immitis microfilariae (DIROIM L1) motility; details: 72 h, read-out: EC50 (reduction of motility)
[3] = tested on: Litomosoides sigmodontis third-stage larvae; test: Litomosoides sigmodontis (LTMOSI L3) larval motility; details: 72 h, read-out: EC50 (reduction of motility)
Method: In Vitro Assay 6: Litomosoides sigmodontis (LTMOSI L3)
10 Litomosoides sigmodontis third-stage larvae, which were freshly isolated from the pleural cavity of an infected rodent, were added to wells of a microtitre plate containing a nutrient medium and the test compound in DMSO. Compounds were tested in concentration-response assay in duplicate. Larvae exposed to DMSO and no test compounds were used as negative controls. Larvae were evaluated after 72 h of incubation with the compound. Efficacy was determined as the reduction of motility in comparison to the negative control. Based on the evaluation of a wide concentration range, concentration-response curves as well as EC50-values were calculated.

Sequence of D. immitis Slo-1 (I0DFK5 1-1119): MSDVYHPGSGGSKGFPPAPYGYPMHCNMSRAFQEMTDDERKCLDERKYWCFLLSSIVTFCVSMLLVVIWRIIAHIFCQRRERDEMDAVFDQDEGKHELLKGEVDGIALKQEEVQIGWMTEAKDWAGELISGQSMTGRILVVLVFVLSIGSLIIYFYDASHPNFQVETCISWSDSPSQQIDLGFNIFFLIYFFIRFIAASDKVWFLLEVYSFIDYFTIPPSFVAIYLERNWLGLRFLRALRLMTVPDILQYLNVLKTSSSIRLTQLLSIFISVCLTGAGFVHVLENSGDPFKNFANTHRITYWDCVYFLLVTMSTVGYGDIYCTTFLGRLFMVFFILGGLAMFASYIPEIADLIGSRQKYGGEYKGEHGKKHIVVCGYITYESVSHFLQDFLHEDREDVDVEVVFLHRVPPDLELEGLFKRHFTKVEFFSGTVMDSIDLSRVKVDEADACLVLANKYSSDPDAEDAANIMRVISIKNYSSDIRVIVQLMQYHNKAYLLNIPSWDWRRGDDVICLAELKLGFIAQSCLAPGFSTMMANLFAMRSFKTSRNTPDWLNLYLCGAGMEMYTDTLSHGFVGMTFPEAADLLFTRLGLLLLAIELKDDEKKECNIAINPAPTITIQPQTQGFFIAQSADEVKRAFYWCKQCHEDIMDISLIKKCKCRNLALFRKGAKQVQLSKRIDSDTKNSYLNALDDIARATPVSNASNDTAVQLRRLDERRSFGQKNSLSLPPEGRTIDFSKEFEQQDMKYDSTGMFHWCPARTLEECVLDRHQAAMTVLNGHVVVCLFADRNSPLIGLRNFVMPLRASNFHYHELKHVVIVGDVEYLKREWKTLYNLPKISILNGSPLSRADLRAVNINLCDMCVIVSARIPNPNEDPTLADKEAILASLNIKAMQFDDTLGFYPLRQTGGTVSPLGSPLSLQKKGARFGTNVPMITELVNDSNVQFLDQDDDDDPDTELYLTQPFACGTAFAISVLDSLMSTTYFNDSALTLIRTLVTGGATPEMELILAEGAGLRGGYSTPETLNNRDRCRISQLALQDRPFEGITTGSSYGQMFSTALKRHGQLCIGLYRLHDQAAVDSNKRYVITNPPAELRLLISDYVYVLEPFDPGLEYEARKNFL
Sequence of C. elegans Slo-1a (Q95V25 whole entry): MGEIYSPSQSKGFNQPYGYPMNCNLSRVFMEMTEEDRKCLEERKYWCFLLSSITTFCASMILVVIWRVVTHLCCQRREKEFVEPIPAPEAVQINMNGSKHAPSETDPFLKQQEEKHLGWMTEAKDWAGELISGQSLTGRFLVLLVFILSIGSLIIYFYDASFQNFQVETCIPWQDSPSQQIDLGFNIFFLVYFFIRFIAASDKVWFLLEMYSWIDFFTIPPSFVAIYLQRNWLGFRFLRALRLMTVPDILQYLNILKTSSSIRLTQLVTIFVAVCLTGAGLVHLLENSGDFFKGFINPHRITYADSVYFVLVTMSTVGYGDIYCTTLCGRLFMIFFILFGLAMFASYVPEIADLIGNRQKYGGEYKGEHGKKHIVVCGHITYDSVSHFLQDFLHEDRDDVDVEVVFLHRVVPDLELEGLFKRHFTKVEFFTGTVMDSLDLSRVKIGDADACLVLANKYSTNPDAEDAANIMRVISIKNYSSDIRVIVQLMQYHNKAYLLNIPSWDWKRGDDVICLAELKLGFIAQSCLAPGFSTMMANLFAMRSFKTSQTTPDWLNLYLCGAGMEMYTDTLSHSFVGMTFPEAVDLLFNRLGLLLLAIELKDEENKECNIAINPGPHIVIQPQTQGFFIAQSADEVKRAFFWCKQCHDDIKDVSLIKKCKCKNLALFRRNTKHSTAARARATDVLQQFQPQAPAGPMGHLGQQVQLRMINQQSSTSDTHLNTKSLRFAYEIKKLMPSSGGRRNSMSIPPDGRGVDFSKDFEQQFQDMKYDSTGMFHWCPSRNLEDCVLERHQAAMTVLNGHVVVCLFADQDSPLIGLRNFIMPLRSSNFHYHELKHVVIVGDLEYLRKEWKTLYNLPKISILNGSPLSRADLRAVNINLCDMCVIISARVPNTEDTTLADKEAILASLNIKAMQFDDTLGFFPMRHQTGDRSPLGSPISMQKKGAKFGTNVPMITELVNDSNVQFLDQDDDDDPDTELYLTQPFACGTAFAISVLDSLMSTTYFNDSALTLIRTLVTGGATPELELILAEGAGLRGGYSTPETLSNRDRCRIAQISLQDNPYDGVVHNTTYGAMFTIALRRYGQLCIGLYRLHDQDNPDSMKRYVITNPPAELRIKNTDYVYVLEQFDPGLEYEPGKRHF

| Compound | inhibition at 1 µg/mL [1] | inhibition at 10 µg/mL [1] | EC50 (D. immitis Slo-1) | mortality at 4 ppm (Cooperia curticei) | mortality at 20 ppm (Cooperia curticei) | EC50 (C. elegans Slo-1a) | EC50 (Dirofilaria immitis) | mortality at 20 ppm (Haemonchus contortus) | EC50 [2] | EC50 [3] |
| --- | --- | --- | --- | --- | --- | --- | --- | --- | --- | --- |
| CN(C)c1c(C(=O)N[C@H]2CCOc3ccccc32)cnc2c(-c3cccc(Cl)c3Cl)nccc12 [Example T1-2, 8-(2,3-Dichlorophenyl)-N-[(4S)-3,4-dihydro-2H-chromen-4-yl]-4-(dimethylamino)-1,7-naphthyridine-3-carboxamide] | > 80% | > 80% | 31.6 to 316 nM | 100% | 100% | 3.16 to 31.6 nM | < 0.1 µg/mL | 90% | < 0.1 µg/mL |  |
| COc1ncc(-c2cccc(Cl)c2Cl)c2ncc(C(=O)N[C@H]3CCOc4ccccc43)c(N(C)C)c12 [Example T2-12, 8-(2,3-dichlorophenyl)-N-[(4S)-3,4-dihydro-2H-1-benzopyran-4-yl]-4-(dimethylamino)-5-methoxy-1,6-naphthyridine-3-carboxamide] | > 80% | > 80% | 31.6 to 316 nM |  |  | < 3.16 nM | < 0.1 µg/mL |  | < 0.1 µg/mL | < 0.1 µg/mL |
| CN(C)c1c(C(=O)N[C@H]2CCOc3ccccc32)cnc2c(-c3cc(F)cc(F)c3F)ncc(F)c12 [Example T1-12, N-[(4S)-3,4-dihydro-2H-1-benzopyran-4-yl]-4-(dimethylamino)-5-fluoro-8-(2,3,5-trifluorophenyl)-1,7-naphthyridine-3-carboxamide] | > 80% | > 80% | 31.6 to 316 nM |  |  |  | < 0.1 µg/mL |  | < 0.1 µg/mL | < 0.1 µg/mL |
| CN(C)c1c(C(=O)N[C@H]2CCOc3ccccc32)cnc2c(-c3cc(Cl)cc(Cl)c3)cncc12 [Example T2-1, 8-(3,5-Dichlorophenyl)-N-[(4S)-3,4-dihydro-2H-chromen-4-yl]-4-(dimethylamino)-1,6-naphthyridine-3-carboxamide] | > 80% |  | 31.6 to 316 nM | 100% | 100% | 3.16 to 31.6 nM | < 0.1 µg/mL | 100% | < 0.1 µg/mL |  |
| O=C(N[C@H]1CCOc2ccccc21)c1cnc2c(-c3cccc(Cl)c3Cl)ccnc2c1N1CCOCC1 [Example T3-4, 8-(2,3-Dichlorophenyl)-N-[(4S)-3,4-dihydro-2H-chromen-4-yl]-4-(morpholin-4-yl)-1,5-naphthyridine-3-carboxamide] | > 80% |  | 3.16 to 31.6 nM | 100% | 100% | < 3.16 nM | < 0.1 µg/mL | 100% | < 0.1 µg/mL |  |
| O=C(N[C@H]1CCOc2ccccc21)c1cnc2c(-c3cc(F)cc(F)c3F)c(F)cnc2c1N1CCOCC1 [Example T3-20, N-[(4S)-3,4-dihydro-2H-1-benzopyran-4-yl]-7-fluoro-4-(morpholin-4-yl)-8-(2,3,5-trifluorophenyl)-1,5-naphthyridine-3-carboxamide] | > 80% | > 80% | 3.16 to 31.6 nM |  |  |  | < 0.1 µg/mL |  | < 0.1 µg/mL | < 0.1 µg/mL |
| CN(C)c1c(C(=O)N[C@H]2CCOc3ccccc32)cnc2c(-c3cccc(Cl)c3Cl)ncc(F)c12 [Example T1-10, 8-(2,3-dichlorophenyl)-N-[(4S)-3,4-dihydro-2H-1-benzopyran-4-yl]-4-(dimethylamino)-5-fluoro-1,7-naphthyridine-3-carboxamide] |  | > 80% | 31.6 to 316 nM |  |  | 3.16 to 31.6 nM | < 0.1 µg/mL |  | < 0.1 µg/mL | < 0.1 µg/mL |
| O=C(N[C@H]1CCOc2ccccc21)c1cnc2c(-c3cc(Cl)cc(Cl)c3)nccc2c1N1CCOCC1 [Example T1-3, 8-(3,5-Dichlorophenyl)-N-[(4S)-3,4-dihydro-2H-chromen-4-yl]-4-(morpholin-4-yl)-1,7-naphthyridine-3-carboxamide] | > 80% | > 80% | 31.6 to 316 nM | 100% | 100% | 3.16 to 31.6 nM | < 0.1 µg/mL | 100% | < 0.1 µg/mL |  |
| COc1ncc(-c2cc(Cl)cc(Cl)c2)c2ncc(C(=O)N[C@H]3CCOc4ccccc43)c(N(C)C)c12 [Example T2-5, 8-(3,5-dichlorophenyl)-N-[(4S)-3,4-dihydro-2H-1-benzopyran-4-yl]-4-(dimethylamino)-5-methoxy-1,6-naphthyridine-3-carboxamide] | > 80% | > 80% | 31.6 to 316 nM |  |  |  | < 0.1 µg/mL |  | < 0.1 µg/mL | < 0.1 µg/mL |
